# Experimental data from article PMC6274772, “Guided Evolution of Recombinant Bombyx mori Acetylcholinesterase II by Homology Modeling to Change Pesticide Sensitivity” (International Journal of Molecular Sciences, 2018).
# Where two headings read alike, the source gives them in different places.
# Columns and labels:
# [1] = biological target: T1, rBmAChE II (recombinant Bombyx mori type II acetylcholinesterase) (Bombyx mori, UniProt B0FGT2, Y398F); details: crude enzyme supernatant; substrate acetylthiocholine iodide (ATChI), DTNB, 50 mM phosphate, 37 °C; covalent
# T1 construct: gene ace2
# [2] = biological target: T2, rBmAChE II (recombinant Bombyx mori type II acetylcholinesterase) (Bombyx mori, UniProt B0FGT2, Y398W); details: crude enzyme supernatant, substrate acetylthiocholine iodide (ATChI), DTNB, 50 mM phosphate, 37 °C, covalent
# T2 construct: gene ace2
# [3] = biological target: T3, rBmAChE II (recombinant Bombyx mori type II acetylcholinesterase) (Bombyx mori, UniProt B0FGT2); assay: Ellman assay inhibition; assay type: biochemical; details: crude enzyme supernatant; substrate acetylthiocholine iodide (ATChI), DTNB, 50 mM phosphate, 37 °C; covalent
# T3 construct: gene ace2; predicted N-terminal signal peptide removed, codon-optimized, pPIC9K in Pichia pastoris GS115, secreted; crude culture supernatant; 604 residues
# From the text: Ellman assay inhibition on rBmAChE II (recombinant Bombyx mori type II acetylcholinesterase) | inhibition of rBmAChE II mutants by various pesticides (malathion, methomyl, carbaryl, and carbofuran-3-hydroxy)
# [4] = biological target: T4, rBmAChE II (recombinant Bombyx mori type II acetylcholinesterase) (Bombyx mori, UniProt B0FGT2, Y398G); details: crude enzyme supernatant; substrate acetylthiocholine iodide (ATChI), DTNB, 50 mM phosphate, 37 °C; covalent
# T4 construct: gene ace2
# [5] = biological target: T3, rBmAChE II (recombinant Bombyx mori type II acetylcholinesterase); assay type: biochemical; details: 30 µL (printed 30 mL) of 0.1 mg/mL physostigmine, 10 min preincubation at 37 °C; crude enzyme supernatant; ATChI substrate, DTNB, 50 mM phosphate
# T3 sequence (B0FGT2 entry or part of it): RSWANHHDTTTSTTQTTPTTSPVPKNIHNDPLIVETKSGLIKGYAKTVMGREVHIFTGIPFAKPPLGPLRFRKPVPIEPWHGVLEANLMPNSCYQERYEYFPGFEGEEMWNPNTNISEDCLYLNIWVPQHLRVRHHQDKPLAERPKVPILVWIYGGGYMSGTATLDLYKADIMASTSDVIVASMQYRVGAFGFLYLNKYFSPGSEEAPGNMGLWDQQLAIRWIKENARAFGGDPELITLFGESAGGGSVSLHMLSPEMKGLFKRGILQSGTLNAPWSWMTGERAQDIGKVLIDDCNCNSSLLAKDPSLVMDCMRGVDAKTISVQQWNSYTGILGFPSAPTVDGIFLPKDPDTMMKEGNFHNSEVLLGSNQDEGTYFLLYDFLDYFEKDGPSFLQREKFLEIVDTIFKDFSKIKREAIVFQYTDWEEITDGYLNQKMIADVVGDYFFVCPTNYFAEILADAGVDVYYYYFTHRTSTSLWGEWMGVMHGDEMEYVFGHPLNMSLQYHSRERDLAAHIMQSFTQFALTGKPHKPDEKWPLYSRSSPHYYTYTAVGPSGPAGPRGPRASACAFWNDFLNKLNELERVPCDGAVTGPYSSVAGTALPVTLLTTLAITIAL
# T2 sequence (B0FGT2 entry or part of it Y398W): as the sequence (B0FGT2 entry or part of it) above, with Y375W counted along it
# T1 sequence (B0FGT2 entry or part of it Y398F): as the sequence (B0FGT2 entry or part of it) above, with Y375F counted along it
# T4 sequence (B0FGT2 entry or part of it Y398G): as the sequence (B0FGT2 entry or part of it) above, with Y375G counted along it
SMILES,IC50 [1] [nM],IC50 [2] [nM],IC50 [3] [nM],IC50 [4] [nM],"Ellman assay, remaining activity [5]",IC50 ([2]; stated gain) [nM]
CNC(=O)Oc1cccc2c1OC(C)(C)C2O (stereo not drawn) [carbofuran-3-hydroxy],43,246,76,193,–,–
CNC(=O)Oc1ccc2c(c1)[C@]1(C)CCN(C)[C@@H]1N2C [physostigmine],–,–,–,–,All four enzyme variants could be inhibited by physostigmine.,–
CNC(=O)Oc1cccc2ccccc12 [carbaryl],21,16,33,56,–,–
CCOC(=O)CC(SP(=S)(OC)OC)C(=O)OCC (stereo not drawn) [malathion],1130,–,2820,–,–,5430
CNC(=O)ON=C(C)SC [methomyl],470,4380,750,–,–,–
